# Reference: ChEMBL document CHEMBL4004849, “Tetrazolylmethyl quinolines: Design, docking studies, synthesis, anticancer and antifungal analyses” (2017)
# Active and inactive are the calls of the source. No cut-off for these calls is given here.
# Tests used:
# Type in all cases: functional
# HL-60(TB) = test: Growth inhibition of human HL-60(TB) cells at 10^-5 M incubated for 48 hrs by sulforhodamine B assay relative to control
# K562 = test: Growth inhibition of human K562 cells at 10^-5 M incubated for 48 hrs by sulforhodamine B assay relative to control
# MOLT-4 = test: Growth inhibition of human MOLT4 cells at 10^-5 M incubated for 48 hrs by sulforhodamine B assay relative to control
# SR = test: Growth inhibition of human SR cells at 10^-5 M incubated for 48 hrs by sulforhodamine B assay relative to control
# A549 = test: Growth inhibition of human A549/ATCC cells at 10^-5 M incubated for 48 hrs by sulforhodamine B assay relative to control
# EKVX = test: Growth inhibition of human EKVX cells at 10^-5 M incubated for 48 hrs by sulforhodamine B assay relative to control
# NCI-H226 = test: Growth inhibition of human NCI-H226 cells at 10^-5 M incubated for 48 hrs by sulforhodamine B assay relative to control
# NCI-H23 = test: Growth inhibition of human NCI-H23 cells at 10^-5 M incubated for 48 hrs by sulforhodamine B assay relative to control
# NCI-H460 = test: Growth inhibition of human NCI-H460 cells at 10^-5 M incubated for 48 hrs by sulforhodamine B assay relative to control
# NCI-H522 = test: Growth inhibition of human NCI-H522 cells at 10^-5 M incubated for 48 hrs by sulforhodamine B assay relative to control
# HCC 2998 = test: Growth inhibition of human HCC2998 cells at 10^-5 M incubated for 48 hrs by sulforhodamine B assay relative to control
# HCT-116 = test: Growth inhibition of human HCT116 cells at 10^-5 M incubated for 48 hrs by sulforhodamine B assay relative to control
# HCT-15 = test: Growth inhibition of human HCT15 cells at 10^-5 M incubated for 48 hrs by sulforhodamine B assay relative to control
# KM12 = test: Growth inhibition of human KM12 cells at 10^-5 M incubated for 48 hrs by sulforhodamine B assay relative to control
# SF-295 = test: Growth inhibition of human SF295 cells at 10^-5 M incubated for 48 hrs by sulforhodamine B assay relative to control
# SNB-19 = test: Growth inhibition of human SNB19 cells at 10^-5 M incubated for 48 hrs by sulforhodamine B assay relative to control
# U-251 = test: Growth inhibition of human U251 cells at 10^-5 M incubated for 48 hrs by sulforhodamine B assay relative to control
# LOX IMVI = test: Growth inhibition of human LOXIMVI cells at 10^-5 M incubated for 48 hrs by sulforhodamine B assay relative to control
# Malme-3M = test: Growth inhibition of human MALME-3M cells at 10^-5 M incubated for 48 hrs by sulforhodamine B assay relative to control
# M14 = test: Growth inhibition of human M14 cells at 10^-5 M incubated for 48 hrs by sulforhodamine B assay relative to control
# MDA-MB-435 = test: Growth inhibition of human MDA-MB-435 cells at 10^-5 M incubated for 48 hrs by sulforhodamine B assay relative to control
# SK-MEL-2 = test: Growth inhibition of human SK-MEL-2 cells at 10^-5 M incubated for 48 hrs by sulforhodamine B assay relative to control
# SK-MEL-28 = test: Growth inhibition of human SK-MEL-28 cells at 10^-5 M incubated for 48 hrs by sulforhodamine B assay relative to control
# SK-MEL-5 = test: Growth inhibition of human SK-MEL-5 cells at 10^-5 M incubated for 48 hrs by sulforhodamine B assay relative to control
# UACC-257 = test: Growth inhibition of human UACC257 cells at 10^-5 M incubated for 48 hrs by sulforhodamine B assay relative to control
# UACC-62 = test: Growth inhibition of human UACC62 cells at 10^-5 M incubated for 48 hrs by sulforhodamine B assay relative to control
# IGROV-1 = test: Growth inhibition of human IGROV1 cells at 10^-5 M incubated for 48 hrs by sulforhodamine B assay relative to control
# OVCAR-3 = test: Growth inhibition of human OVCAR3 cells at 10^-5 M incubated for 48 hrs by sulforhodamine B assay relative to control
# OVCAR-4 = test: Growth inhibition of human OVCAR4 cells at 10^-5 M incubated for 48 hrs by sulforhodamine B assay relative to control
# OVCAR-5 = test: Growth inhibition of human OVCAR5 cells at 10^-5 M incubated for 48 hrs by sulforhodamine B assay relative to control
# OVCAR-8 = test: Growth inhibition of human OVCAR8 cells at 10^-5 M incubated for 48 hrs by sulforhodamine B assay relative to control
# SK-OV-3 = test: Growth inhibition of human SKOV3 cells at 10^-5 M incubated for 48 hrs by sulforhodamine B assay relative to control
# 786-0 = test: Growth inhibition of human 786-0 cells at 10^-5 M incubated for 48 hrs by sulforhodamine B assay relative to control
# ACHN = test: Growth inhibition of human ACHN cells at 10^-5 M incubated for 48 hrs by sulforhodamine B assay relative to control
# RXF 393 = test: Growth inhibition of human RXF393 cells at 10^-5 M incubated for 48 hrs by sulforhodamine B assay relative to control
# SN12C = test: Growth inhibition of human SN12C cells at 10^-5 M incubated for 48 hrs by sulforhodamine B assay relative to control
# UO-31 = test: Growth inhibition of human UO31 cells at 10^-5 M incubated for 48 hrs by sulforhodamine B assay relative to control
# MCF7 = test: Growth inhibition of human MCF7 cells at 10^-5 M incubated for 48 hrs by sulforhodamine B assay relative to control
# MDA-MB-231 = test: Growth inhibition of human MDA-MB-231/ATCC cells at 10^-5 M incubated for 48 hrs by sulforhodamine B assay relative to control
# BT-549 = test: Growth inhibition of human BT549 cells at 10^-5 M incubated for 48 hrs by sulforhodamine B assay relative to control
# MDA-MB-468 = test: Growth inhibition of human MDA-MB-468 cells at 10^-5 M incubated for 48 hrs by sulforhodamine B assay relative to control
# Candida albicans [1] = test: Antifungal activity against Candida albicans at 100 ug/ml by disc diffusion method; details: read-out: IZ
# Candida albicans [2] = test: Antifungal activity against Candida albicans after 24 hrs by serial dilution method
# Aspergillus fumigatus [3] = test: Antifungal activity against Aspergillus fumigatus at 100 ug/ml by disc diffusion method; details: read-out: IZ
# Aspergillus fumigatus [4] = test: Antifungal activity against Aspergillus fumigatus after 24 hrs by serial dilution method
compound,measurement,setting,value
Cc1ccc2nc(Cl)c(Cn3nnc(CSc4ccccc4)n3)cc2c1,growth inhibition (GI),HL-60(TB),Active
same,growth inhibition (GI),K562,Active
same,growth inhibition (GI),MOLT-4,Active
same,growth inhibition (GI),SR,Active
same,growth inhibition (GI),A549,Active
same,growth inhibition (GI),EKVX,Active
same,growth inhibition (GI),NCI-H226,Active
same,growth inhibition (GI),NCI-H23,Active
same,growth inhibition (GI),NCI-H460,Active
same,growth inhibition (GI),NCI-H522,Active
same,growth inhibition (GI),HCC 2998,Active
same,growth inhibition (GI),HCT-116,Active
same,growth inhibition (GI),HCT-15,Active
same,growth inhibition (GI),KM12,Active
same,growth inhibition (GI),SF-295,Active
same,growth inhibition (GI),SNB-19,Active
same,growth inhibition (GI),U-251,Active
same,growth inhibition (GI),LOX IMVI,Active
same,growth inhibition (GI),Malme-3M,Active
same,growth inhibition (GI),M14,Active
same,growth inhibition (GI),MDA-MB-435,Active
same,growth inhibition (GI),SK-MEL-2,Active
same,growth inhibition (GI),SK-MEL-28,Active
same,growth inhibition (GI),SK-MEL-5,Active
same,growth inhibition (GI),UACC-257,Active
same,growth inhibition (GI),UACC-62,Active
same,growth inhibition (GI),IGROV-1,Active
same,growth inhibition (GI),OVCAR-3,Active
same,growth inhibition (GI),OVCAR-4,Active
same,growth inhibition (GI),OVCAR-5,Active
same,growth inhibition (GI),OVCAR-8,Active
same,growth inhibition (GI),SK-OV-3,Active
same,growth inhibition (GI),786-0,Active
same,growth inhibition (GI),ACHN,Active
same,growth inhibition (GI),RXF 393,Active
same,growth inhibition (GI),SN12C,Active
same,growth inhibition (GI),UO-31,Active
same,growth inhibition (GI),MCF7,Active
same,growth inhibition (GI),MDA-MB-231,Active
same,growth inhibition (GI),BT-549,Active
same,growth inhibition (GI),MDA-MB-468,Active
same,zone of inhibition at 100 µg/mL,Candida albicans [1],12 mm
same,MIC,Candida albicans [2],10 µg/mL
same,zone of inhibition at 100 µg/mL,Aspergillus fumigatus [3],18 mm
same,MIC,Aspergillus fumigatus [4],25 µg/mL
COc1ccc2nc(Cl)c(Cn3nnc(Cc4ccccc4)n3)cc2c1,inhibition of growth at 10 µM,"HL-60(TB); HL-60, 48 h, read-out: GI",43.4%
same,inhibition of growth at 10 µM,"K562; K562, 48 h, read-out: GI",67.1%
same,inhibition of growth at 10 µM,"MOLT-4; MOLT-4, 48 h, read-out: GI",89.7%
same,inhibition of growth at 10 µM,SR; read-out: GI,77.1%
same,inhibition of growth at 10 µM,"A549; A549, 48 h, read-out: GI",68.5%
same,inhibition of growth at 10 µM,EKVX; read-out: GI,75.5%
same,inhibition of growth at 10 µM,"NCI-H226; NCI-H226, 48 h, read-out: GI",61%
same,inhibition of growth at 10 µM,"NCI-H23; NCI-H23, 48 h, read-out: GI",67.5%
same,inhibition of growth at 10 µM,"NCI-H460; NCI-H460, 48 h, read-out: GI",60%
same,inhibition of growth at 10 µM,"NCI-H522; NCI-H522, 48 h, read-out: GI",62%
same,inhibition of growth at 10 µM,"HCC 2998; HCC 2998, 48 h, read-out: GI",41%
same,inhibition of growth at 10 µM,"HCT-116; HCT-116, 48 h, read-out: GI",70.8%
same,inhibition of growth at 10 µM,"HCT-15; HCT-15, 48 h, read-out: GI",63.5%
same,inhibition of growth at 10 µM,"KM12; KM12, 48 h, read-out: GI",63.5%
same,inhibition of growth at 10 µM,"SF-295; SF-295, 48 h, read-out: GI",62.6%
same,inhibition of growth at 10 µM,"SNB-19; SNB-19, 48 h, read-out: GI",42%
same,inhibition of growth at 10 µM,"U-251; U-251, 48 h, read-out: GI",46.8%
same,inhibition of growth at 10 µM,LOX IMVI; read-out: GI,57.1%
same,inhibition of growth at 10 µM,Malme-3M; read-out: GI,65.6%
same,inhibition of growth at 10 µM,"M14; M14, 48 h, read-out: GI",69.7%
same,inhibition of growth at 10 µM,"MDA-MB-435; MDA-MB-435, 48 h, read-out: GI",70.7%
same,inhibition of growth at 10 µM,"SK-MEL-2; SK-MEL-2, 48 h, read-out: GI",50.4%
same,inhibition of growth at 10 µM,"SK-MEL-28; SK-MEL-28, 48 h, read-out: GI",52.5%
same,inhibition of growth at 10 µM,"SK-MEL-5; SK-MEL-5, 48 h, read-out: GI",147%
same,inhibition of growth at 10 µM,"UACC-257; UACC-257, 48 h, read-out: GI",73.5%
same,inhibition of growth at 10 µM,"UACC-62; UACC-62, 48 h, read-out: GI",64.9%
same,inhibition of growth at 10 µM,"IGROV-1; IGROV-1, 48 h, read-out: GI",56.8%
same,inhibition of growth at 10 µM,"OVCAR-3; OVCAR-3, 48 h, read-out: GI",50.1%
same,inhibition of growth at 10 µM,"OVCAR-4; OVCAR-4, 48 h, read-out: GI",80.3%
same,inhibition of growth at 10 µM,"OVCAR-5; OVCAR-5, 48 h, read-out: GI",17.2%
same,inhibition of growth at 10 µM,"OVCAR-8; OVCAR-8, 48 h, read-out: GI",59.5%
same,inhibition of growth at 10 µM,"SK-OV-3; SK-OV-3, 48 h, read-out: GI",50.6%
same,inhibition of growth at 10 µM,"786-0; 786-0, 48 h, read-out: GI",52.5%
same,inhibition of growth at 10 µM,ACHN; read-out: GI,58.5%
same,inhibition of growth at 10 µM,"RXF 393; RXF 393, 48 h, read-out: GI",39.8%
same,inhibition of growth at 10 µM,SN12C; read-out: GI,42.7%
same,inhibition of growth at 10 µM,"UO-31; UO-31, 48 h, read-out: GI",85.3%
same,inhibition of growth at 10 µM,"MCF7; MCF7, 48 h, read-out: GI",72.1%
same,inhibition of growth at 10 µM,"MDA-MB-231; MDA-MB-231, 48 h, read-out: GI",49.3%
same,inhibition of growth at 10 µM,"BT-549; BT-549, 48 h, read-out: GI",79.7%
same,inhibition of growth at 10 µM,"MDA-MB-468; MDA-MB-468, 48 h, read-out: GI",70.1%
same,zone of inhibition at 100 µg/mL,Candida albicans [1],16 mm
same,MIC,Candida albicans [2],10 µg/mL
same,zone of inhibition at 100 µg/mL,Aspergillus fumigatus [3],20 mm
same,MIC,Aspergillus fumigatus [4],25 µg/mL
